Data from patent US9522914B2, “Azole derivative” (TAISHO PHARMACEUTICAL CO., LTD, priority 2011, dated 2016).

target: Human V1b receptor (Homo sapiens (Human), UniProt P47901); assay: Binding Test for V1b Receptor ([3H]AVP, crude membrane preparation of 293FT cells); conditions: inhibition of [3H]AVP binding (0.4 to 1 nmol/L), room temperature, 60 minutes
Description: Binding Test for V1b Receptor
Human V1b receptor was transiently expressed in 293FT cells (Invitrogen). The cells were collected and then homogenated in a 15 mmol/L tris-hydrochloric acid buffer (pH 7.4 and containing 2 mmol/L magnesium chloride, 0.3 mmol/L ethylenediaminetetracetic acid, and 1 mmol/L glycol ether diaminetetraacetic acid). The resulting homogenate was centrifuged at 50,000×g at 4° C. for 20 minutes. The precipitate was resuspended in a 75 mmol/L tris-hydrochloric acid buffer (pH 7.4 and containing 12.5 mmol/L magnesium chloride, 0.3 mmol/L ethylenediaminetetracetic acid, 1 mmol/L glycol ether diaminetetraacetic acid, and 250 mmol/L sucrose) to give a crude membrane preparation, which was stored at −80° C. until the binding test was initiated. In the binding test, the crude membrane preparation was diluted with a 50 mmol/L tris-hydrochloric acid buffer (pH 7.4 and containing 10 mmol/L magnesium chloride and 0.1% bovine serum albumin) and mixed with each test compound and [^3H]AVP (final concentration: 0.4 to 1 nmol/L), followed by incubation at room temperature for 60 minutes. The test compound was serially diluted with DMSO so that it would have final concentrations of 0.01 nmol/L to 1 μmol/L at the time of mixing. After the incubation, the mixture was suction filtered through a GF/C filter that was preliminarily impregnated with 0.3% polyethyleneimine. The GF/C filter was dried and after adding a scintillator, the residual radioactivity on the filter was measured using TopCount (PerkinElmer Inc.). The radioactivity in the presence of unlabeled AVP at […] was defined as 0%, and the radioactivity in the absence of unlabeled AVP was defined as 100%. A dose-response curve was plotted from radio activities in the presence of a test compound at various concentrations, and the 50% inhibitory concentration (IC50 value) of the test compound was calculated.

Chain of Human V1b receptor (P47901 whole entry): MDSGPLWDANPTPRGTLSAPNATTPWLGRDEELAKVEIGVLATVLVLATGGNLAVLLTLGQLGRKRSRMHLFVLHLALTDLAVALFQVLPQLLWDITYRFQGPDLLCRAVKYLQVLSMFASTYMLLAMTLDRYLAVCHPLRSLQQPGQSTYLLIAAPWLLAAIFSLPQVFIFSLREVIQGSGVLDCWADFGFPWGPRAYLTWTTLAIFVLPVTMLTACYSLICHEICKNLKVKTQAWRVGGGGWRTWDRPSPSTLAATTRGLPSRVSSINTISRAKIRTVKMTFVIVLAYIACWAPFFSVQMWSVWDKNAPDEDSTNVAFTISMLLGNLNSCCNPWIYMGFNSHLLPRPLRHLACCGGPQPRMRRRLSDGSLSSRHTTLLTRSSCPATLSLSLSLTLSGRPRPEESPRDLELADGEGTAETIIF

Row | IC50 | Compound
1 | 0.015 µM | CC(C)NC(=O)Cn1cc(-c2ccc(CCN3CCCCC3)cc2)nc1-c1cccc(Cl)c1 [Example A-01, 2-[2-(3-chlorophenyl)-4-{4-[2-(piperidin-1-yl)ethyl]phenyl}-1H-imidazol-1-yl]-N-(propan-2-yl)acetamide]
2 | 0.01 to 0.1 µM | CC(C)NC(=O)Cn1cc(-c2ccc(CCN3CC4(COC4)C3)cc2)nc1-c1cccc(Cl)c1 [Example A-03, 2-[2-(3-chlorophenyl)-4-{4-[2-(2-oxa-6-azaspiro[3.3]hept-6-yl)ethyl]phenyl}-1H-imidazol-1-yl]-N-(propan-2-yl)acetamide]
3 | 0.01 to 0.1 µM | CC(C)NC(=O)Cn1cc(-c2ccc(CCN3CCC(O)CC3)cc2)nc1-c1cccc(Cl)c1 [Example A-04, 2-[2-(3-chlorophenyl)-4-{4-[2-(4-hydroxypiperidin-1-yl)ethyl]phenyl}-1H-imidazol-1-yl]-N-(propan-2-yl)acetamide]
4 | 0.01 to 0.1 µM | CC(C)NC(=O)Cn1cc(-c2ccc(CCN3CCCC(O)C3)cc2)nc1-c1cccc(Cl)c1 (stereo not shown) [Example A-05, 2-[2-(3-chlorophenyl)-4-{4-[2-(3-hydroxypiperidin-1-yl)ethyl]phenyl}-1H-imidazol-1-yl]-N-(propan-2-yl)acetamide]
5 | 0.01 to 0.1 µM | CC(C)NC(=O)Cn1cc(-c2ccc(CCN3CCC(O)C3)cc2)nc1-c1cccc(Cl)c1 (stereo not shown) [Example A-06, 2-[2-(3-chlorophenyl)-4-{4-[2-(3-hydroxypyrrolidin-1-yl)ethyl]phenyl}-1H-imidazol-1-yl]-N-(propan-2-yl)acetamide]
6 | 0.018 µM | CC(C)NC(=O)Cn1cc(-c2ccc(CCN3CCC(CO)C3)cc2)nc1-c1cccc(Cl)c1 (stereo not shown) [Example A-07, 2-[2-(3-chlorophenyl)-4-(4-{2-[3-(hydroxymethyl)pyrrolidin-1-yl]ethyl}phenyl)-1H-imidazol-1-yl]-N-(propan-2-yl)acetamide]
7 | 0.016 µM | COc1cc(-c2nc(-c3ccc(CCN4CCCCC4)cc3)cn2CC(=O)NC(C)C)ccc1F [Example A-09, 2-[2-(4-fluoro-3-methoxyphenyl)-4-{4-[2-(piperidin-1-yl)ethyl]phenyl}-1H-imidazol-1-yl]-N-(propan-2-yl)acetamide]
8 | 0.0037 µM | COc1cc(-c2nc(-c3ccc(CCN4CCOCC4)cc3)cn2CC(=O)NC(C)C)ccc1F [Example A-10, 2-[2-(4-fluoro-3-methoxyphenyl)-4-{4-[2-(morpholin-4-yl)ethyl]phenyl}1H-imidazol-1-yl]-N-(propan-2-yl)acetamide]
9 | 0.01 µM | COc1cc(-c2nc(-c3ccc(CCN4CCCC4)cc3)cn2CC(=O)NC(C)C)ccc1F [Example A-11, 2-[2-(4-fluoro-3-methoxyphenyl)-4-{4-[2-(pyrrolidin-1-yl)ethyl]phenyl}-1H-imidazol-1-yl]-N-(propan-2-yl)acetamide]
10 | 0.017 µM | COc1cc(-c2nc(-c3ccc(CCN4CCC[C@H]4C)cc3)cn2CC(=O)NC(C)C)ccc1F [Example A-12, 2-[2-(4-fluoro-3-methoxyphenyl)-4-(4-{2-[(2R)-2-methylpyrrolidin-1-yl]ethyl}phenyl)-1H-imidazol-1-yl]-N-(propan-2-yl)acetamide]
11 | 0.01 to 0.1 µM | COc1cc(-c2nc(-c3ccc(CCN4CCCC(C#N)C4)cc3)cn2CC(=O)NC(C)C)ccc1F (stereo not shown) [Example A-13, 2-[4-{4-[2-(3-cyanopiperidin-1-yl)ethyl]phenyl}-2-(4-fluoro-3-methoxyphenyl)-1H-imidazol-1-yl]-N-(propan-2-yl)acetamide]
12 | 0.1 to 1 µM | COc1cc(-c2nc(-c3ccc(CCN4CCC(C#N)CC4)cc3)cn2CC(=O)NC(C)C)ccc1F [Example A-14, 2-[4-{4-[2-(4-cyanopiperidin-1-yl)ethyl]phenyl}-2-(4-fluoro-3-methoxyphenyl)-1H-imidazol-1-yl]-N-(propan-2-yl)acetamide]
13 | 0.1 to 1 µM | COc1cc(-c2nc(-c3ccc(CCN4CC(C#N)C4)cc3)cn2CC(=O)NC(C)C)ccc1F [Example A-16, 2-[4-{4-[2-(3-cyanoazetidin-1-yl)ethyl]phenyl}-2-(4-fluoro-3-methoxyphenyl)-1H-imidazol-1-yl]-N-(propan-2-yl)acetamide]
14 | 0.01 to 0.1 µM | COc1cc(-c2nc(-c3ccc(CCN4CCC(OC)C4)cc3)cn2CC(=O)NC(C)C)ccc1F (stereo not shown) [Example A-17, 2-[2-(4-fluoro-3-methoxyphenyl)-4-{4-[2-(3-methoxypyrrolidin-1-yl)ethyl]phenyl}-1H-imidazol-1-yl]-N-(propan-2-yl)acetamide]
15 | 0.019 µM | COc1cc(-c2nc(-c3ccc(CCN4CCCC(OC)C4)cc3)cn2CC(=O)NC(C)C)ccc1F (stereo not shown) [Example A-18, 2-[2-(4-fluoro-3-methoxyphenyl)-4-{4-[2-(3-methoxypiperidin-1-yl)ethyl]phenyl}-1H-imidazol-1-yl]-N-(propan-2-yl)acetamide]
16 | 0.01 to 0.1 µM | COc1cc(-c2nc(-c3ccc(CCN4CC(F)C4)cc3)cn2CC(=O)NC(C)C)ccc1F [Example A-19, 2-[4-{4-[2-(3-fluoroazetidin-1-yl)ethyl]phenyl}-2-(4-fluoro-3-methoxyphenyl)-1H-imidazol-1-yl]-N-(propan-2-yl)acetamide]
17 | 0.012 µM | COc1cc(-c2nc(-c3ccc(CCN4CC(C)OC(C)C4)cc3)cn2CC(=O)NC(C)C)ccc1F (stereo not shown) [Example A-20, 2-[4-{4-[2-(2,6-dimethylmorpholin-4-yl)ethyl]phenyl}-2-(4-fluoro-3-methoxyphenyl)-1H-imidazol-1-yl]-N-(propan-2-yl)acetamide]
18 | 0.0032 µM | COc1cc(-c2nc(-c3ccc(CCN4CCC(C)C4)cc3)cn2CC(=O)NC(C)C)ccc1F (stereo not shown) [Example A-21, 2-[2-(4-fluoro-3-methoxyphenyl)-4-{4-[2-(3-methylpyrrolidin-1-yl)ethyl]phenyl}-1H-imidazol-1-yl]-N-(propan-2-yl)acetamide]
19 | 0.011 µM | COc1cc(-c2nc(-c3ccc(CCN4CCCOCC4)cc3)cn2CC(=O)NC(C)C)ccc1F [Example A-23, 2-[2-(4-fluoro-3-methoxyphenyl)-4-{4-[2-(1,4-oxazepan-4-yl)ethyl]phenyl}-1H-imidazol-1-yl]-N-(propan-2-yl)acetamide]
20 | 0.01 to 0.1 µM | COc1cc(-c2nc(-c3ccc(CCN4CCC(OC)CC4)cc3)cn2CC(=O)NC(C)C)ccc1F [Example A-24, 2-[2-(4-fluoro-3-methoxyphenyl)-4-{4-[2-(4-methoxypiperidin-1-yl)ethyl]phenyl}-1H-imidazol-1-yl]-N-(propan-2-yl)acetamide]
21 | 0.014 µM | COc1cc(-c2nc(-c3ccc(CCN4C(C)COCC4C)cc3)cn2CC(=O)NC(C)C)ccc1F (stereo not shown) [Example A-25, 2-[4-{4-[2-(3,5-dimethylmorpholin-4-yl)ethyl]phenyl}-2-(4-fluoro-3-methoxyphenyl)-1H-imidazol-1-yl]-N-(propan-2-yl)acetamide]
22 | 0.0034 µM | CC(C)NC(=O)Cn1cc(-c2ccc(CCN3CCOCC3)cn2)nc1-c1cccc(Cl)c1 [Example A-26, 2-[2-(3-chlorophenyl)-4-{5-[2-(morpholin-4-yl)ethyl]pyridin-2-yl}-1H-imidazol-1-yl]-N-(propan-2-yl)acetamide]
23 | 0.01 to 0.1 µM | COc1cccc(-c2nc(-c3ccc(CCN4CCCCC4)cc3)cn2CC(=O)NC(C)C)n1 [Example A-28, 2-[2-(6-methoxypyridin-2-yl)-4-{4-[2-(piperidin-1-yl)ethyl]phenyl}-1H-imidazol-1-yl]-N-(propan-2-yl)acetamide]
24 | 0.027 µM | COc1cccc(-c2nc(-c3ccc(CCN4CCOCC4)cc3)cn2CC(=O)NC(C)C)n1 [Example A-29, 2-[2-(6-methoxypyridin-2-yl)-4-{4-[2-(morpholin-4-yl)ethyl]phenyl}-1H-imidazol-1-yl]-N-(propan-2-yl)acetamide]

Row | Compound | IC50
25 | CC(C)NC(=O)Cn1cc(-c2ccc(CCN3C4CCC3COC4)cc2)nc1-c1cccc(Cl)c1 [Example A-08, 2-[2-(3-chlorophenyl)-4-{4-[2-(3-oxa-8-azabicyclo[3.2.1]oct-8-yl)ethyl]phenyl}-1H-imidazol-1-yl]-N-(propan-2-yl)acetamide] | 0.00082 µM
26 | COc1cc(-c2nc(-c3ccc(CCN4C5CCC4CC(O)C5)cc3)cn2CC(=O)NC(C)C)ccc1F (stereo not shown) [Example A-15, 2-[2-(4-fluoro-3-methoxyphenyl)-4-{4-[2-(3-hydroxy-8-azabicyclo[3.2.1]oct-8-yl)ethyl]phenyl}-1H-imidazol-1-yl]-N-(propan-2-yl)acetamide] | 0.0024 µM
27 | COc1cc(-c2nc(-c3ccc(CCN4C5CCC4COC5)cc3)cn2CC(=O)NC(C)C)ccc1F [Example A-22, 2-[2-(4-fluoro-3-methoxyphenyl)-4-{4-[2-(3-oxa-8-azabicyclo[3.2.1]oct-8-yl)ethyl]phenyl}-1H-imidazol-1-yl]-N-(propan-2-yl)acetamide] | 0.0026 µM
28 | CC(C)NC(=O)Cn1cc(-c2ccc(CCN3C4CCC3COC4)cn2)nc1-c1cccc(Cl)c1 [Example A-27, 2-[2-(3-chlorophenyl)-4-{5-[2-(3-oxa-8-azabicyclo[3.2.1]oct-8-yl)ethyl]pyridin-2-yl}-1H-imidazol-1-yl]-N-(propan-2-yl)acetamide] | 0.0036 µM
